Laboratory results as given in ChEMBL document CHEMBL4229563, “Identification of the First PPARα/γ Dual Agonist Able To Bind to Canonical and Alternative Sites of PPARγ and To Inhibit Its Cdk5-Mediated Phosphorylation” (J Med Chem, 2018).
Activity calls are given as the source filed them. No cut-off for these calls is given here.

Legend:
[1] = target: T1, Peroxisome proliferator-activated receptor alpha (Homo sapiens, UniProt Q07869); assay: Transactivation of GAL4-tagged human PPARalpha LBD expressed in human HepG2 cells after 20 hrs by luciferase reporter gene assay; type: cell-based
T1 sequence (Q07869 whole entry): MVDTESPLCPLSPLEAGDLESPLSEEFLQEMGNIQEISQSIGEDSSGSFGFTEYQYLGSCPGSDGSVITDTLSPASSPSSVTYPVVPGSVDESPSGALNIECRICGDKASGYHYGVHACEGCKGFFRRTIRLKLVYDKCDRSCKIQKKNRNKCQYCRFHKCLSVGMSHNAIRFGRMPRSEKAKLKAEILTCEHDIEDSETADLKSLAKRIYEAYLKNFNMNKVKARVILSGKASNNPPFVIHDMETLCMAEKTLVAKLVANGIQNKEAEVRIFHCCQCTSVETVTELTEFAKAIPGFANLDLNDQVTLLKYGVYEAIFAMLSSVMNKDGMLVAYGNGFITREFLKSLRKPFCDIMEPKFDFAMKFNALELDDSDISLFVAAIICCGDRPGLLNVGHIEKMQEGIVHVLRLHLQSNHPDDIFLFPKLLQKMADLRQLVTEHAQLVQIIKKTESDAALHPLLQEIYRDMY

[2] = target: T2, Peroxisome proliferator-activated receptor alpha (Homo sapiens) (UniProt Q07869); assay: Transactivation of GAL4-tagged human PPARalpha LBD expressed in human HepG2 cells after 20 hrs by luciferase reporter gene assay relative to Wy-14,643; type: cell-based
T2 sequence (whole entry): T1 sequence (Q07869 whole entry)

[3] = target: T3, Peroxisome proliferator-activated receptor gamma (Homo sapiens, UniProt P37231); assay: Transactivation of GAL4-tagged human PPARgamma LBD expressed in human HepG2 cells after 20 hrs by luciferase reporter gene assay; type: cell-based
T3 sequence (P37231 whole entry): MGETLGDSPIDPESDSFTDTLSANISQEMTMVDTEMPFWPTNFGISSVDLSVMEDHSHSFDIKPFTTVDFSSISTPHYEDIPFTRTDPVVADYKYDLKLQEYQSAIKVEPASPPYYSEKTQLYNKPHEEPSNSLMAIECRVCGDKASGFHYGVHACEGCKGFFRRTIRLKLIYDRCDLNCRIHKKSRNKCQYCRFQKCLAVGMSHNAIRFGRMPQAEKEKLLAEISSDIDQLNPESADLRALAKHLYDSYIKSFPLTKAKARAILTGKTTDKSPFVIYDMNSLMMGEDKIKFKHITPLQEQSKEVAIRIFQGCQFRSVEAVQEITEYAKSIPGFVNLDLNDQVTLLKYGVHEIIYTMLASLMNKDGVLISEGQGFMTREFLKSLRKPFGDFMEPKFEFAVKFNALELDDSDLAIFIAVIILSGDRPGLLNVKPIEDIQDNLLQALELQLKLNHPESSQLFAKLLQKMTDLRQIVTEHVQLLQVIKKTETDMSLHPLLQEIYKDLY

[4] = target: T4, Peroxisome proliferator-activated receptor gamma (Mus musculus) (UniProt P37238); assay: Agonist activity at PPARgamma in mouse 3T3-L1 cells assessed as increase in fabp4 RNA expression at 0.1 to 2.5 uM by qRT-PCR analysis; type: cell-based
T4 sequence (whole entry): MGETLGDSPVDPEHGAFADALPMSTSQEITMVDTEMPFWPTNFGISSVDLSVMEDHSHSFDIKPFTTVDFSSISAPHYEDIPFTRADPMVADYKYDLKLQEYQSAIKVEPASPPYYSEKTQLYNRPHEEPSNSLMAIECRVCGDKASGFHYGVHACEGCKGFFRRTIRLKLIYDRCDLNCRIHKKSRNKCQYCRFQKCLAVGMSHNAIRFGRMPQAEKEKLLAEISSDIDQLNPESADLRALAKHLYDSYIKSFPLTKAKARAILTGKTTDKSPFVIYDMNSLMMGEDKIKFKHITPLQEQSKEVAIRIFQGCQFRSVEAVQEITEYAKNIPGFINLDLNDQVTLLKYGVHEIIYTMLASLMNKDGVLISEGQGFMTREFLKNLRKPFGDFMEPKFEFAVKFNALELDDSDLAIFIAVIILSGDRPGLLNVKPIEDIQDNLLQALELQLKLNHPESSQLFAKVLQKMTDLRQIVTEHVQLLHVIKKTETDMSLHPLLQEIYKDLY

[5] = target: T4, Peroxisome proliferator-activated receptor gamma (Mus musculus); assay: Agonist activity at PPARgamma in mouse 3T3-L1 cells assessed as increase in adipoq RNA expression at 0.1 to 2.5 uM by qRT-PCR analysis; type: cell-based
[6] = target: T4, Peroxisome proliferator-activated receptor gamma (Mus musculus); assay: Agonist activity at PPARgamma in mouse 3T3-L1 cells assessed as increase in glut4 RNA expression at 0.1 to 2.5 uM by qRT-PCR analysis; type: cell-based
[7] = target: T4, Peroxisome proliferator-activated receptor gamma (Mus musculus); assay: Agonist activity at PPARgamma in mouse 3T3-L1 cells assessed as increase in CD36 RNA expression at 0.1 to 2.5 uM by qRT-PCR analysis; type: cell-based
[8] = target: T4, Peroxisome proliferator-activated receptor gamma (Mus musculus); assay: Agonist activity at PPARgamma in mouse 3T3-L1 cells assessed as increase in pck1 RNA expression at 0.1 to 2.5 uM by qRT-PCR analysis; type: cell-based
[9] = target: T4, Peroxisome proliferator-activated receptor gamma (Mus musculus); assay: Agonist activity at PPARgamma in mouse 3T3-L1 cells assessed as increase in Gk RNA expression at 0.1 to 2.5 uM by qRT-PCR analysis; type: cell-based
[10] = target: T4, Peroxisome proliferator-activated receptor gamma (Mus musculus); assay: Agonist activity at PPARgamma in mouse 3T3-L1 cells assessed as increase in Idh3a RNA expression at 0.1 to 2.5 uM by qRT-PCR analysis; type: cell-based
[11] = target: T4, Peroxisome proliferator-activated receptor gamma (Mus musculus); assay: Agonist activity at PPARgamma in mouse 3T3-L1 cells assessed as increase in Suclg1 RNA expression at 0.1 to 2.5 uM by qRT-PCR analysis; type: cell-based
[12] = test system: 3T3-L1; assay: Induction of lipid accumulation in mouse 3T3L1 cells at 0.1 to 2.5 uM by Oil Red O staining-based assay; type: functional, cell-based
[13] = target: T5, Peroxisome proliferator-activated receptor alpha (Mus musculus) (UniProt P23204); assay: Agonist activity at PPARalpha in mouse Hepa1-6 cells assessed as increase in Acox1 RNA expression at 1 to 5 uM by qRT-PCR analysis; type: cell-based
T5 sequence (whole entry): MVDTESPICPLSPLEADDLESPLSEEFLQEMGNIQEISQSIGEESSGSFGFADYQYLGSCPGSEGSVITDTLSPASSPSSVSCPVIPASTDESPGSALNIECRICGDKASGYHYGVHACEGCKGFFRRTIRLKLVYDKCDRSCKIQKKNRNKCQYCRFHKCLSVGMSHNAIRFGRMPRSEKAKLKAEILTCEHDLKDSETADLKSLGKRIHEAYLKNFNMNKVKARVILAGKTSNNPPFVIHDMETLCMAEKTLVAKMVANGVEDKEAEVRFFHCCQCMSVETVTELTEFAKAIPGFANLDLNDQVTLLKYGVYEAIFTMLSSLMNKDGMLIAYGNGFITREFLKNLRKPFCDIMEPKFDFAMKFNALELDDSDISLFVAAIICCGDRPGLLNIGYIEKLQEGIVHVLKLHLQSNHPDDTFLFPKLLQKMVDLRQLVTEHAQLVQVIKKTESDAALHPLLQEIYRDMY

[14] = target: T5, Peroxisome proliferator-activated receptor alpha (Mus musculus); assay: Agonist activity at PPARalpha in mouse Hepa1-6 cells assessed as increase in cpt1a RNA expression at 1 to 5 uM by qRT-PCR analysis; type: cell-based
[15] = target: T5, Peroxisome proliferator-activated receptor alpha (Mus musculus); assay: Agonist activity at PPARalpha in mouse Hepa1-6 cells assessed as increase in acadm RNA expression at 1 to 5 uM by qRT-PCR analysis; type: cell-based
[16] = target: T6, Peroxisome proliferator-activated receptor gamma (Homo sapiens) (UniProt P37231); assay: Agonist activity at human PPARgamma LBD assessed as induction of recruitment of biotin-labeled PGC1alpha (130 to 154 residues) co-activator at >1 uM after 1 hr by TR-FRET assay
T6 sequence (whole entry): T3 sequence (P37231 whole entry)

[17] = target: T3, Peroxisome proliferator-activated receptor gamma; assay: Synergistic agonist activity at human PPARgamma LBD assessed as biotin-labeled PGC1alpha (130 to 154 residues) co-activator recruitment after 1 hr in presence of 0.37 uM rosiglitazone by TR-FRET assay
[18] = target: T3, Peroxisome proliferator-activated receptor gamma; assay: Synergistic agonist activity at human PPARgamma LBD assessed as biotin-labeled PGC1alpha (130 to 154 residues) co-activator recruitment after 1 hr in presence of 1 uM rosiglitazone by TR-FRET assay
[19] = target: T3, Peroxisome proliferator-activated receptor gamma; assay: Synergistic agonist activity at human PPARgamma LBD assessed as biotin-labeled PGC1alpha (130 to 154 residues) co-activator recruitment after 1 hr in presence of 10 uM rosiglitazone by TR-FRET assay
[20] = target: T6, Peroxisome proliferator-activated receptor gamma (Homo sapiens); assay: Transactivation of GAL4-tagged human PPARgamma LBD expressed in human HepG2 cells at 10^-9 to 10^-5 M after 20 hrs in presence of 5 uM PPARgamma antagonist GW9662 by luciferase reporter gene assay; type: cell-based
[21] = target: T6, Peroxisome proliferator-activated receptor gamma (Homo sapiens); assay: Binding affinity wild type apo form of PPARgamma (unknown origin) assessed as inhibition of CDK5/p35-mediated PPARgamma phosphorylation at ser273 at 0.1 to 10 uM after 3.5 hrs by ELISA relative to rosiglitazone
[22] = target: T4, Peroxisome proliferator-activated receptor gamma (Mus musculus); assay: Agonist activity at PPARgamma in mouse 3T3-L1 cells accessed as increase in 2-deoxy-D-glucose uptake at 10 uM treated 17 hrs prior to insulin stimulation; type: cell-based
[23] = target: T4, Peroxisome proliferator-activated receptor gamma (Mus musculus); assay: Synergistic agonist activity at PPARgamma in mouse 3T3-L1 cells accessed as increase in 2-deoxy-D-glucose uptake at 10 uM in presence of 0.3 uM rosiglitazone dosed 17 hrs prior to insulin stimulation
[24] = target: T4, Peroxisome proliferator-activated receptor gamma (Mus musculus); assay: Agonist activity at PPARgamma in mouse 3T3-L1 cells assessed as increase in fabp4 RNA expression at 5 to 10 uM by qRT-PCR analysis; type: cell-based
[25] = target: T4, Peroxisome proliferator-activated receptor gamma (Mus musculus); assay: Agonist activity at PPARgamma in mouse 3T3-L1 cells assessed as increase in adipoq RNA expression at 5 to 10 uM by qRT-PCR analysis; type: cell-based
[26] = target: T4, Peroxisome proliferator-activated receptor gamma (Mus musculus); assay: Agonist activity at PPARgamma in mouse 3T3-L1 cells assessed as increase in glut4 RNA expression at 5 to 10 uM by qRT-PCR analysis; type: cell-based
[27] = target: T4, Peroxisome proliferator-activated receptor gamma (Mus musculus); assay: Agonist activity at PPARgamma in mouse 3T3-L1 cells assessed as increase in pck1 RNA expression at 5 to 10 uM by qRT-PCR analysis; type: cell-based
[28] = test system: 3T3-L1; assay: Induction of cells lipid accumulation in mouse 3T3L1 cells at 10 uM by Oil Red O staining-based assay; type: functional, cell-based
[29] = test system: 3T3-L1; assay: Induction of lipid accumulation in mouse 3T3L1 cells at 5 uM by Oil Red O staining-based assay; type: functional, cell-based
[30] = test system: 3T3-L1; assay: Induction of lipid accumulation in mouse 3T3L1 cells at 2 uM by Oil Red O staining-based assay; type: functional, cell-based

## O=C(O)[C@H](Cc1ccc(-c2ccccc2)cc1)Oc1ccc(-c2ccccc2)cc1
[1]; read-out: EC50
  EC50: 1.05 µM
[2]
  Emax: 68%
[3]
  EC50: 0.12 µM
[4]
  Activity: inactive
[5]
  Activity: inactive
[6]
  Activity: inactive
[7]
  Activity: inactive
[8]
  Activity: inactive
[9]
  Activity: inactive
[10]
  Activity: inactive
[11]
  Activity: inactive
[12]
  Activity: inactive
[13]
  Activity: Active
[14]
  Activity: Active
[15]
  Activity: Active
[16]
  Activity: Active
[17]
  EC50: 3.69 µM
[18]
  EC50: 2.85 µM
[19]
  EC50: 9.78 µM
[20]
  Activity: Active
[21]
  Activity: Active
[22]
  Activity: Active
[23]
  Activity: Active
[24]
  Activity: inactive
[25]
  Activity: inactive
[26]
  Activity: inactive
[27]
  Activity: inactive
[28]
  Activity: inactive

## O=C(O)[C@H](Cc1ccccc1)Oc1ccc(-c2ccc(C[C@@H](Oc3ccc(-c4ccccc4)cc3)C(=O)O)cc2)cc1
[1]; read-out: EC50
  EC50: 9.5 µM
[3]
  EC50: 25 µM

## O=C(O)[C@@H](Cc1ccc(-c2ccc(O[C@H](Cc3ccccc3)C(=O)O)cc2)cc1)Oc1ccc(-c2ccccc2)cc1
[1]; hepg2
  EC50: Not Active
[3]
  EC50: 15 µM

## O=C(O)[C@H](Cc1ccc(-c2ccc(O[C@@H](Cc3ccccc3)C(=O)O)cc2)cc1)Oc1ccc(-c2ccccc2)cc1
[1]; read-out: EC50
  EC50: 5.9 µM
[3]
  EC50: 9.8 µM

## O=C(O)[C@@H](Cc1ccc(-c2ccccc2)cc1)Oc1ccc(-c2ccccc2)cc1
[1]; read-out: EC50
  EC50: 2.6 µM
[2]
  Emax: 25%
[3]
  EC50: 0.89 µM

## CN(CCOc1ccc(CC2SC(=O)NC2=O)cc1)c1ccccn1 (stereo unspecified)
[29]
  Activity: Active
[30]
  Activity: Active

## O=C(O)[C@H](Cc1ccc(-c2ccc(O[C@H](Cc3ccccc3)C(=O)O)cc2)cc1)Oc1ccc(-c2ccccc2)cc1
[1]; read-out: EC50
  EC50: 27 µM
[3]
  EC50: 18 µM
